Measurements taken from patent US9055745B2, “Compositions for internal and external insecticides, ovicides, repellents and wound healing” (Natureza, Inc., priority 2011, dated 2015).

Assays:
fleas = assay: Flea contact test using impregnated glass paper (Example XIII, FIG. 15, Table 13); assay type: in vivo; conditions: for Mortality of the fleas: 200 μL on glass filter paper, after twenty-four hours, 12 fleas
Experimental: The fatty acids used in the test were mono laurin and lauric acid, while the fatty acid esters used in the test were methyl laurate, i.e. lauric acid methyl ester and ethyl dodecanoate, i.e. lauric acid ethyl ester. Each of these compounds were dissolved in ethanol in concentrations of 0.1% and 1%, and then 200 μL (micro liters) of each solution was placed on glass filter paper (15×150 mm). After the ethanol had evaporated a paper for each concentration of each compound was put into a test tube, and 12 fleas were added per test tube and the top of the test tube was covered. Whether the fleas were alive or dead at was measured after 2 and twenty-four hours. […] Further results are shown below in Table 13.

ctenocephalides felis = assay: Efficacy of fatty acid methyl esters in water or acetone on glass paper (Table 14); assay type: in vivo
Excerpt: Further results are shown below in Table 14, regarding the efficacy of various fatty acid methyl and ester esters against fleas (ctenocephalides felis).

SMILES	5 Hours Alive (ctenocephalides felis; 0.1% in Acetone)	5 Hours Dead (ctenocephalides felis; 0.1% in Acetone)	2 hours Alive (ctenocephalides felis; 0.1% in Acetone)	2 hours Dead (ctenocephalides felis; 0.1% in Acetone)	20 hours Alive (ctenocephalides felis; 0.1% in Acetone)	20 hours Dead (ctenocephalides felis; 0.1% in Acetone)	5 Hours Alive (ctenocephalides felis; 0.1% in Water)	5 Hours Dead (ctenocephalides felis; 0.1% in Water)	2 hours Alive (ctenocephalides felis; 0.1% in Water)	2 hours Dead (ctenocephalides felis; 0.1% in Water)	20 hours Alive (ctenocephalides felis; 0.1% in Water)	20 hours Dead (ctenocephalides felis; 0.1% in Water)	5 Hours Alive (ctenocephalides felis; 1% in Acetone)	5 Hours Dead (ctenocephalides felis; 1% in Acetone)	2 hours Alive (ctenocephalides felis; 1% in Acetone)	2 hours Dead (ctenocephalides felis; 1% in Acetone)	20 hours Alive (ctenocephalides felis; 1% in Acetone)	20 hours Dead (ctenocephalides felis; 1% in Acetone)	5 Hours Alive (ctenocephalides felis; 1% in Water)	5 Hours Dead (ctenocephalides felis; 1% in Water)	other results
CCCCCCCCCCCC(=O)OC [Methyl laurate, lauric acid methyl ester]	15	0	15	0	15	0	15	0	15	0	15	0	0	13	0	13	0	13	11	0	Mortality of the fleas (fleas; 0.1% in ethanol): 100%; Mortality of the fleas (fleas; 1% in ethanol): 100%; 2 hours Alive (ctenocephalides felis; 1% in Water): 11; 2 hours Dead (ctenocephalides felis; 1% in Water): 0; 20 hours Alive (ctenocephalides felis; 1% in Water): 11; 20 hours Dead (ctenocephalides felis; 1% in Water): 0
CCCCCCCC(=O)OC [Methyl octanoate]	16	0	16	0	16	0	10	0	10	0	10	0	8	0	8	0	8	0	5	0	2 hours Alive (ctenocephalides felis; 1% in Water): 5; 2 hours Dead (ctenocephalides felis; 1% in Water): 0; 20 hours Alive (ctenocephalides felis; 1% in Water): 5; 20 hours Dead (ctenocephalides felis; 1% in Water): 0
CO[C@H]1CO[C@H]2[C@@H]1OC[C@H]2OC [ISDE - 1% (benign base), isosorbide dimethyl ether]	–	–	–	–	–	–	–	–	–	–	–	–	–	–	–	–	–	–	–	–	% Killed (fleas; after 24 hours): 0%; 2 hours Alive (fleas; number of fleas, 2 hours): 12; 2 hours Dead (fleas; number of fleas, 2 hours): 0; 24 hours Alive (fleas; number of fleas, 24 hours): 12; 24 hours Dead (fleas; number of fleas, 24 hours): 0
CCCCCCCCCCCC(=O)OCC [lauric acid ethyl ester]	–	–	–	–	–	–	–	–	–	–	–	–	–	–	–	–	–	–	–	–	Mortality of the fleas (fleas; 0.1% in ethanol): 100%; Mortality of the fleas (fleas; 1% in ethanol): 100%
CCCCCCCCCC(=O)OC [Methyl decanoate]	12	0	12	0	12	0	11	0	11	0	11	0	14	0	14	0	14	0	19	0	2 hours Alive (ctenocephalides felis; 1% in Water): 19; 2 hours Dead (ctenocephalides felis; 1% in Water): 0; 20 hours Alive (ctenocephalides felis; 1% in Water): 19; 20 hours Dead (ctenocephalides felis; 1% in Water): 0
CCCCCCCCC(=O)OC [Methyl nonanoate]	14	0	14	0	14	0	12	0	12	0	12	0	9	0	9	0	9	0	14	0	2 hours Alive (ctenocephalides felis; 1% in Water): 14; 2 hours Dead (ctenocephalides felis; 1% in Water): 0; 20 hours Alive (ctenocephalides felis; 1% in Water): 14; 20 hours Dead (ctenocephalides felis; 1% in Water): 0
